Experimental data from US8404696B2, “Quinazoline-2,4-dione derivative, and medical compositions for the prophylaxis and treatment of cranial nerve disease containing the same” (Shin Poong Pharmaceutical Co., Ltd., priority 2008, dated 2013).

Assays:
[1] = system: superoxide dismutase (SOD); experiment: Increase of superoxide dismutase (SOD) activity in mouse brain cells; format: cell-based; conditions: 100 μg/ml
Method: ROS inhibitory effect of compounds was represented to the dose suppressing 50% of production of reactive oxygen compared to control. […] The activity of superoxide dismutase (SOD) was measured by using a kit acquired in Sigma.

[2] = system: middle cerebral artery occlusion (MCAO) model; experiment: Anti-stroke effect in MCAO model, intravenous administration around reperfusion; format: in vivo, rats of SD species; conditions: 5 mg/kg iv; for Infarcted volume (Mean ± standard deviation): negative control 0.43 ± 0.02
Method: Male rats of SD species with 290-300 g of body weight were used as laboratory animals, and 8 rats were used in each experiment group. The operation was performed by using the method of Nagasawa et al. (Nagasawa, H. and Gogure, K. 1989, Stroke, 20: 1037-1043).
The rats were anesthetized by Ketamine, and the operation was performed as body temperature was maintained using thermoplate. The cerebral region was incised following the median line of the neck, and the left common carotid artery, internal carotid artery and external carotid artery were separated, taking care not to damage the vagus nerve. The common carotid artery and external carotid artery were ligatured, and a probe was inserted into the internal carotid artery from the branch point of the internal and external carotid arteries. And then the fundus of the middle cerebral artery was occluded by ligature just on the upper side of the insertion region. A probe was made by heating the end of a 4-0 nylon surgical suture (Dafilon, B. Braun, Germany) and cut into 30 mm. The 7-9 mm end of the probe was coated with the mixture of silcon (Xantopren VL plus, Heraeus Kulzer, Germany) and curing agent (Optosyl-Xantopren VL plus, Heraeus Kulzer, Germany), and the thickness was to be 0.3-0.4 mm. After the intervention of the probe insertion and the animals came out of the anesthetic, individuals in which neurological deficit symptom (right direction circling) was observed were included in the ischemia group.
After 3 hours of ischemia, the inserted probe was removed to reperfuse blood circulation. The brain was extracted after 24 hours, followed by histological staining.
The compound 3 was administered at a programmed time before or after insertion of the probe with oral or intravenous administration. TTC (2,3,5-triphenyltetrazolium chloride) staining was performed to estimate the damage of brain tissue by ischemia. Procephalon of the extracted brain was sliced into 2 mm of sequential slice by using brain matrix (ASI instrument, Warren, Mich., USA). The slices were put into 2% of TTC solution and incubated at 37° C. for 60 minutes for staining. The TTC stained brain slice was fixed in 10% of formalin buffer and the front of the each slice was photographed with a digital camera. The infarcted areas (cm^2) that were not stained with deep red in each acquired image were measured using an image analyzer, and total infarcted volume (cm^3) was calculated by multiplying the thickness of the slices
In the experiment, the probe was removed after stoke induction so that circulation was reperfused.

[3] = treatment time 0.5 after reperfusion
[4] = treatment time 1 after reperfusion
[5] = treatment time 2 after reperfusion
[6] = treatment time 4 after reperfusion
[7] = treatment time 6 after reperfusion
[8] = treatment time 12 (hours) after reperfusion
[9] = treatment time 18 after reperfusion
[10] = treatment time 24 after reperfusion
[11] = treatment time −0.5 after reperfusion

CC(=O)N(CCCCNCCCn1c(=O)[nH]c2ccccc2c1=O)CCCn1c(=O)[nH]c2ccccc2c1=O [Compound 3, N-[3-(2,4-dioxo-1,4-dihydro-2H-quinazolin-3-yl)propyl]-N-{4-[3-(2,4-dioxo-1,4-dihydro-2H-quinazolin-3-yl)propylamino]butyl}acetamide]
Increase of SOD activity, compared to control [1]: 3.2 ± 2.7
Inhibitory percentage compared to negative control [2, 3]: 72.3%
Infarcted volume (Mean ± standard deviation) [2, 3]: 0.12 ± 0.03 cm^3
Inhibitory percentage compared to negative control [2, 4]: 53.8%
Infarcted volume (Mean ± standard deviation) [2, 4]: 0.20 ± 0.04 cm^3
Inhibitory percentage compared to negative control [2, 5]: 49.9%
Infarcted volume (Mean ± standard deviation) [2, 5]: 0.22 ± 0.02 cm^3
Inhibitory percentage compared to negative control [2, 6]: 47.9%
Infarcted volume (Mean ± standard deviation) [2, 6]: 0.22 ± 0.09 cm^3
Inhibitory percentage compared to negative control [2, 7]: 60.9%
Infarcted volume (Mean ± standard deviation) [2, 7]: 0.17 ± 0.04 cm^3
Inhibitory percentage compared to negative control [2, 8]: 62.7%
Infarcted volume (Mean ± standard deviation) [2, 8]: 0.16 ± 0.04 cm^3
Inhibitory percentage compared to negative control [2, 9]: 13.5%
Infarcted volume (Mean ± standard deviation) [2, 9]: 0.37 ± 0.03 cm^3
Inhibitory percentage compared to negative control [2, 10]: 16.3%
Infarcted volume (Mean ± standard deviation) [2, 10]: 0.36 ± 0.08 cm^3
Inhibitory percentage compared to negative control [2, 11]: 67.2%
Infarcted volume (Mean ± standard deviation) [2, 11]: 0.14 ± 0.03 cm^3
